Experiments:
[1] = Brain distribution of Compound 100 24 hours after a single 100 mg/kg PO dose; format: in vivo, male Sprague-Dawley rats
Experimental: The distribution profile of Compound 100 was investigated in male Sprague-Dawley rats. […] At 24 hours after dosing, tissues from perfused brain and plasma were collected and analyzed by LC-MS.

[2] = biological target: T1, human NMDAR subunits GluN1 and GluN2A (Homo sapiens, UniProt Q05586); assay: NMDA receptor activation in automated patch clamp system (ScreenPatch); format: cell-based; details: HEK293 cells, 0.003 to 10 μM
T1 construct: expressed in transfected cells; host or cells: HEK293
Experimental: Peak current and steady state current were measured. The activity at the NMDA receptor was indistinguishable for the two compounds.

[3] = Pharmacokinetic profile of Compound 100 versus non-deuterated D-serine, 150 mg/kg PO; format: in vivo, male Sprague-Dawley rats
Source text: (§1) The pharmacokinetic profile of Compound 100 was investigated in male Sprague-Dawley rats compared with that of non-deuterated D-serine. […] Plasma was collected and analyzed for Compound 100 and non-deuterated D-Serine. Additional blood was collected and analyzed for the full clinical chemistry profile.

rats = assay: Nephrotoxicity comparison at doses from 150 mg/kg to 750 mg/kg (dose escalation); format: in vivo; details: for BUN / creatinine: doses from 150 mg/kg to 750 mg/kg, PO
[4] = Pharmacokinetics of deuterated and non-deuterated D-serine, PO 10 mg/kg; format: in vivo, male Sprague Dawley rats
Experimental: Three rats were used for each group. Blood was collected at the following time points: for IV dosing: pre-dose, 0.05, 0.167, 0.5, 1, 2, 4, 6, 8 and 12 hours post-dose; for PO dosing: pre-dose, 0.25, 0.5, 1, 2, 4, 6, 8 and 12 hours post-dose PO. Urine was collected at pre-dose (minimum 12 hours), 0-6, 6-12 and 12-24 hours. Plasma samples were analyzed and quantified for dosed compound LC-MS/MS.

Male Sprague-Dawley Rats [5] = assay: Nephrotoxicity of Compound 100 and non-deuterated D-serine, 150 mg/kg PO (BUN, creatinine, GGT); format: in vivo
Source text: as §1

Male Sprague-Dawley Rats [6] = assay: Nephrotoxicity dose response of non-deuterated D-serine, 30 to 300 mg/kg PO; format: in vivo; details: 24 hr samples, 150 and 300 mg/kg doses, versus control and reference values
Source text: The pharmacokinetic profile of non-deuterated D-serine was investigated in male Sprague-Dawley rats. […] Plasma was collected and analyzed for the non-deuterated D-serine. Additional blood was collected and analyzed for the full clinical chemistry profile.

[7] = dose escalation 150 mg/kg to 750 mg/kg

concentration in the cortex compared with plasma or other brain locations [1]	activity at the NMDA receptor (peak current and steady state current) [2]	Cmax and AUCinf compared with non-deuterated D-serine [3]	course of concentration in hippocampus ([3]; at 24 hr)	course of concentrations in plasma and cortex ([3]; within 24 hr)	Tmax compared with non-deuterated D-serine [4]	Structure (SMILES)	exposure as measured by AUC and Cmax, compared with non-deuterated D-serine (rats; [7])	gross signs of nephrotoxicity (rats; [7])	BUN (rats)	creatinine (rats)	blood urea nitrogen (BUN) level (Male Sprague-Dawley Rats [5]; 8 hr and 24 hr serum samples)	creatinine level (Male Sprague-Dawley Rats [5]; 24 hr serum samples)	gamma glutamyl transferase (GGT) level (Male Sprague-Dawley Rats [5]; 24 hr serum samples)	creatine level (Male Sprague-Dawley Rats [6])	gamma glutamyl transferase (GGT) level (Male Sprague-Dawley Rats [6])	urea nitrogen level (Male Sprague-Dawley Rats [6])
greater	indistinguishable	similar	remained steady	decreased	similar	[2H][C@@](N)(CO)C(=O)O [Compound 100, (2R)-2-amino-2-deutero-3-hydroxy-propanoic acid]	greater	not Compound 100	minimal changes	minimal changes						
	indistinguishable					N[C@H](CO)C(=O)O [Non-deuterated D-Serine, D-serine]		only observed in rats receiving non-deuterated D-serine	increasingly elevated levels	increasingly elevated levels	Elevated	Elevated	Elevated	Elevated	Elevated	Elevated
